Experimental data as given in PMC2692652 (Biochemistry, 2009).

Tests used:
R451A M. tb PGDH = R451A M. tb PGDH (Mycobacterium tuberculosis, UniProt P9WNX3, R450A); assay type: biochemical; conditions: pH 7.5
R501A M. tb PGDH [1] = target: T1, R501A M. tb PGDH (Mycobacterium tuberculosis, UniProt P9WNX3, R500A); assay type: biochemical; conditions: pH 7.5
K439A M. tb PGDH [2] = target: T2, K439A M. tb PGDH (Mycobacterium tuberculosis, UniProt P9WNX3, K438A); assay type: biochemical; conditions: pH 7.5
H447A M. tb PGDH [3] = target: T3, H447A M. tb PGDH (Mycobacterium tuberculosis, UniProt P9WNX3, H446A); assay type: biochemical; conditions: pH 7.5
R446A M. tb PGDH [4] = target: T4, R446A M. tb PGDH (Mycobacterium tuberculosis, UniProt P9WNX3, R445A); assay type: biochemical; conditions: pH 7.5
[5] = target: R446A-R501A-K439A M. tb PGDH (Mycobacterium tuberculosis, UniProt P9WNX3, K438A/R445A/R500A); assay type: biochemical; conditions: pH 7.5
[6] = target: T5, R451A-R501A-K439A M. tb PGDH (Mycobacterium tuberculosis, UniProt P9WNX3, K438A/R450A/R500A); assay type: biochemical
W29F M. tb PGDH [7] = target: T6, W29F M. tb PGDH (Mycobacterium tuberculosis, UniProt P9WNX3, W28F); assay type: biochemical; conditions: pH 7.5
W327F M. tb PGDH [8] = target: T7, W327F M. tb PGDH (Mycobacterium tuberculosis, UniProt P9WNX3, W326F); assay type: biochemical; conditions: pH 7.5
[9] = target: T5, R451A-R501A-K439A M. tb PGDH; assay type: biochemical; conditions: pH 7.5
W29F M. tb PGDH [10] = target: T6, W29F M. tb PGDH; assay type: binding; conditions: pH 7.5
W327F M. tb PGDH [11] = target: T7, W327F M. tb PGDH; assay type: binding; conditions: pH 7.5
[12] = target: T5, R451A-R501A-K439A M. tb PGDH; assay type: binding; conditions: pH 7.5
[13] = test system: native and mutant M. tb PGDH; experiment: NADH dependence of steady state activity, summary over enzymes; assay type: biochemical, Mycobacterium tuberculosis
R501A M. tb PGDH [14] = target: T1, R501A M. tb PGDH; conditions: read-out: Ki, HPAP (substrate inhibition); cited from earlier work
K439A M. tb PGDH [15] = target: T2, K439A M. tb PGDH; conditions: read-out: Ki, HPAP (substrate inhibition); cited from earlier work
H447A M. tb PGDH [16] = target: T3, H447A M. tb PGDH; conditions: read-out: Ki, HPAP (substrate inhibition); cited from earlier work
R446A M. tb PGDH [17] = target: T4, R446A M. tb PGDH; conditions: read-out: Ki, HPAP (substrate inhibition); cited from earlier work

N[C@@H](CO)C(=O)O [L-serine]
n (Hill coefficient), serine inhibition, High Substrate (R451A M. tb PGDH): 1.7 ± 0.3 | n (Hill coefficient), serine inhibition, Peak Substrate (R451A M. tb PGDH): 1.6 ± 0.1 | n (Hill coefficient), serine inhibition, High Substrate (R501A M. tb PGDH [1]): 1.7 ± 0.1 | n (Hill coefficient), serine inhibition, Peak Substrate (R501A M. tb PGDH [1]): 1.5 ± 0.1 | n (Hill coefficient), serine inhibition, High Substrate (K439A M. tb PGDH [2]): 1.2 ± 0.1 | n (Hill coefficient), serine inhibition, Peak Substrate (K439A M. tb PGDH [2]): 1.2 ± 0.1 | n (Hill coefficient), serine inhibition, High Substrate (H447A M. tb PGDH [3]): 1.5 ± 0.1 | n (Hill coefficient), serine inhibition, Peak Substrate (H447A M. tb PGDH [3]): 1.7 ± 0.1 | n (Hill coefficient), serine inhibition, High Substrate (R446A M. tb PGDH [4]): 0.9 ± 0.1 | n (Hill coefficient), serine inhibition, Peak Substrate (R446A M. tb PGDH [4]): 1.3 ± 0.1 | n (Hill coefficient), serine inhibition, Peak Substrate [5]: 1.0 ± 0.1 | Inhibition of catalytic activity by serine [6]: unable to be inhibited

NADH
K0.5, Activity vs NADH (W29F M. tb PGDH [7]): 99 ± 2 µM | n (Hill coefficient), Activity vs NADH (W29F M. tb PGDH [7]): 2.2 ± 0.1 | K0.5, Activity vs NADH (W327F M. tb PGDH [8]): 89 ± 4 µM | n (Hill coefficient), Activity vs NADH (W327F M. tb PGDH [8]): 2.0 ± 0.1 | K0.5, Activity vs NADH [9]: 83 ± 13 µM | n (Hill coefficient), Activity vs NADH [9]: 1.5 ± 0.2 | K0.5, FRET vs NADH (W29F M. tb PGDH [10]): 1.9 ± 0.1 µM | n (Hill coefficient), FRET vs NADH (W29F M. tb PGDH [10]): 1.2 ± 0.1 | K0.5, FRET vs NADH (W327F M. tb PGDH [11]): 3.0 ± 0.3 µM | n (Hill coefficient), FRET vs NADH (W327F M. tb PGDH [11]): 1.7 ± 0.3 | K0.5, FRET vs NADH [12]: 3.6 ± 0.1 µM | n (Hill coefficient), FRET vs NADH [12]: 2.3 ± 0.2 | K0.5 for NADH for activity [13]: 80 to 100 mM

hydroxypyruvic acid phosphate [HPAP]
Ki (R501A M. tb PGDH [14]): 1020 ± 30 µM | Ki (K439A M. tb PGDH [15]): 54 ± 4 µM | Ki (H447A M. tb PGDH [16]): 870 ± 50 µM | Ki (R446A M. tb PGDH [17]): 289 ± 15 µM
